In a melting point compilation (Tetko et al.; mined from patent text by program, amines drawn as free bases though some values may be those of a salt) one finds melting point data, which are given here for 63 molecules.

The structures appear in SMILES notation.

The melting point is the temperature of the solid-liquid transition. `CC(=O)c1cccc(-c2ccc(COc3ccc(C(=O)O)c(O)c3)cc2)c1`: the melting point lay within 215 to 220 °C.
Then `COc1ccc(OC)c(S(=O)(=O)Nc2ccccc2/C=C/c2ccncc2)c1`, with 193 to 195 °C; and `NC(=O)c1cccc(-c2nc3sccn3c2-c2ccnc(N[C@@H]3CCCN(S(=O)(=O)c4ccc(Cl)cc4)C3)n2)c1`, with 168 to 170 °C.
On to `O=C(Nc1ccc(CN2C(=O)[C@H]3CCC[C@H]3Nc3ccccc32)cc1)OCc1ccccc1` (relative stereo), for which the melting point was 162 °C.
In turn, `Cc1cc(Br)ccc1NC(=O)CC(=O)O` gave a melting point of 163 to 165 °C.
With `Nc1ccc(F)c(Cl)c1F` the figure was 58 °C; with `COc1cc(OC)nc(C(CC2CC2)C(=O)NS(C)(=O)=O)n1` (stereo not drawn), 92 to 94 °C; with `CN(C)N=Nc1cc([N+](=O)[O-])sc1C(=O)O`, 184 to 186 °C.
Then `NC(=O)c1ccc(OCCCCl)cc1`, with 142 to 143 °C; and `Cc1cc(=O)c2ccccc2s1`, with 70 °C.
In turn, `O=C(Nc1ccc(F)cc1)NC1C(=O)N(CC(=O)N2CCCC2)c2ccccc2N(C2CCCCC2)C1=O` (stereo not drawn) came in with a melting point of 181 to 183 °C.
With `CCCCCc1cc2c(nc(O)n2[C@@H](C)c2ccccc2)c(N)n1` the figure was 147 to 148 °C; with `CCCCCCCCCCCCCCCCCC(=O)OCCCCCCCCCCCCCC`, 40 °C.
Then `CC(C)Oc1c(C(N)=O)oc2ccc(OCc3ccccc3)cc12`, with 158 to 160 °C; and `CCOC(=O)c1c(Nc2ccccc2[N+](=O)[O-])c(C)cn1C`, with 114 °C.
Consider `Cc1ccc(Cc2cnc(NCCCCNc3ncccc3Cl)[nH]c2=O)cn1`, for which the melting point lay within 180 to 182 °C.
With `Oc1cc(C(F)(F)F)nc(C(F)(F)F)c1` the figure was 123 to 130 °C; with `Cc1ccccc1C[C@H](C(=O)Nc1nc2ccccc2o1)c1ccc(S(C)(=O)=O)cc1`, 99 to 102 °C.
With `CCOC(=O)c1cc2sc(C3CCC(c4c(F)cccc4F)=N3)cc2s1` (stereo not drawn) the figure was 107 °C.
Regarding `CC12CCC3C(CC=C4CC(O)CCC43C)C1CC=C2I` (stereo not drawn), the melting point lay in the range of 169 to 171 °C.
In turn, `CCOC(=O)C(C)c1ccc2nc(N)sc2c1` (stereo not drawn) registered a melting point of 146 °C.
For the molecule `Cc1cccc(NC(=O)NCC(=O)N(CC(=O)OC(C)(C)C)c2ccc(Cl)cc2)c1`, the melting point worked out at 125 °C.
With `O=[N+]([O-])c1cccc2c1OC(CO)C2` (stereo not drawn) the figure was 63 to 65 °C.
With `Cc1c(O[Si](C)(C)C(C)(C)C)cc(O[Si](C)(C)C(C)(C)C)c(C)c1C(=O)OCc1ccc([N+](=O)[O-])cc1` the figure was 121 to 122 °C; with `COC(=O)c1cc2ccc3[nH]ccc3c2[nH]1`, 183 to 184 °C.
Then `CC(C)(C)c1ccc(OCC(O)CN2CCC3(CC2)CSC2=C(O3)c3cc(F)ccc3C(=O)C2=O)cc1` (stereo not drawn), with 114 to 116 °C; and `CCC1CC2(C)C(CCC3C2CCC2(C)C(OC)CCC32)CC1=O` (stereo not drawn), with 105 to 107 °C; and `CC(C)[C@H](NC(=O)OC(C)(C)C)[C@H]1CCn2c(c(C3=C(c4cn(-c5ccccc5)c5ccccc45)C(=O)NC3=O)c3ccccc32)C1`, with 165 to 168 °C.
`CNC(=O)ON=C(C)CN(c1c(C)cccc1C)S(C)(=O)=O`: the melting point was 130 to 134 °C.
With `CC#CCOc1cc(OCC#CCC)ncn1` the figure was 67.4 °C; with `Cc1ccc(F)cc1C(=O)Nc1ccc(C(=O)N2Cc3cccn3Cc3ccccc32)cc1`, 170 to 180 °C.
Then `CC(=O)Oc1ccc2c(c1)CCC1C2C(O)CC2(C)C(=O)CCC12` (stereo not drawn), with 180 to 182 °C; and `C[Si](C)(C)c1ccc2c(c1)C([Si](C)(C)C)([Si](C)(C)C)c1cc([Si](C)(C)C)ccc1-2`, with 141 to 142 °C.
Then `COC(=O)Nc1cn2cc(Sc3ccccn3)ccc2n1`, with 230 to 236 °C; and `CC(=O)NNc1c(C)cnc2c(NC(=O)c3c(Cl)cccc3Cl)ccc(C)c12`, with 234 to 238 °C; and `CCN1c2ncc(Cc3cccc(F)c3)cc2C(=O)N(C)c2ccc(Cl)nc21`, with 104 to 105 °C.
In turn, `Nc1cc(Cl)c(Oc2ccc(S(=O)(=O)c3ccc(Cl)cc3)cc2)c(Cl)c1` showed a melting point of 186 to 187 °C.
Then `COC1OC(=O)C(OC)(OC)C1Cl` (stereo not drawn), with 90 °C; and `Cc1oc(C(C)C)cc1C(=O)O`, with 88.5 °C; and `NS(=O)(=O)c1cnc(-c2cn(-c3nc(-c4ccc(C(F)(F)F)cc4)cc(C(F)(F)F)n3)cn2)s1`, with 264 °C.
With `CC(C)(C)OC(=O)N1CCC(O)(CSC2=CC(=O)C(=O)c3ccccc32)CC1` the figure was 156 to 157 °C; with `O=c1c2ccccc2ccn2ccnc12`, 219 °C.
In turn, `Cc1ccc(-c2ccc(-c3nnnn3CCCCCCc3cccnc3)cc2)cc1C` gave a melting point of 101 to 103 °C.
`O=C(Cc1ccccc1)Nc1cnc(-c2ccccc2)nc1Cl` gave a melting point of 169 °C.
Molecule `CCNC(=O)ON=C1CCOc2ccc(OC)cc21` showed a melting point of 97 to 98 °C.
`CC(=Nc1cc(C(F)(F)F)cc2nc(C)n(C(C)C)c12)c1ccccc1` registered a melting point of 164 to 166 °C.
With `COc1ccnc2c1c(C(C)=O)cn2S(=O)(=O)c1ccccc1` the figure was 156 to 158 °C; with `N[C@@H](CCCCN=Cc1ccccc1)C(=O)O`, 79 to 81 °C.
Then `CCCCOC(=O)C(COC(C)(C)C)NC(=O)c1ccc2c(Cl)cnc(NC(=N)N)c2c1` (racemic), with 215 to 219 °C.
Regarding `CC(O)CSc1cc(C(C)(C)C)c(O)c(C(C)(C)C)c1` (stereo not drawn), the melting point was 82 °C.
On to `Cc1c(C(=O)c2cnn(C(C)(C)C)c2O)ccc(S(C)(=O)=O)c1I`, for which the melting point was in the range of 171 to 172 °C.
With `COc1ccc(CN2Cc3cc(N(C)C)ccc3N3CC(=O)N=C23)cc1` the figure was 196 to 200 °C; with `C#CCCn1nnc2cc3c(=O)n(C(C)Cn4cnnn4)nnc3cc2c1=O` (stereo not drawn), 201 to 204 °C.
`CC(C)(CN)Cc1ccc(-c2ccc(CC(C)(C)CN)cc2)cc1` registered a melting point of 97 to 99 °C.
`CCC1(C)NC(=O)C(C)(CC)N1` (stereo not drawn): the melting point lay within 58 to 64 °C.
Then `CC(C)(C)OC(=O)NC(Cc1ccccc1F)C(=O)N1CCSC1` (stereo not drawn), with 133 to 134 °C.
With `CC(C)(C)OC(=O)CCc1ccc(C[C@H](NC(=O)OC(C)(C)C)C(=O)O)cc1` the figure was 88.5 to 90 °C.
`CCNC(=O)c1ccccc1Nc1nc(Nc2cc3c(cc2OC)CCN(CC(=O)N(C)C)CC3)ncc1Cl` had a melting point of 99 to 111 °C.
Then `CC(C)(C)OC(=O)NCc1ccc(CNC(=O)N2CCN(C(=O)OCc3ccccc3)CC2)cc1`, with 128 °C; and `CCCc1c2oc(C(N)=O)cc(=O)c2cc2c(=O)cc(C(=O)OCC)oc12`, with 229 to 231 °C; and `CCCOc1ccc(S(=O)(=O)N2CCN(Cc3ccccc3)CC2)cc1-c1nc2cc(N)c([N+](=O)[O-])cc2c(=O)[nH]1`, with 198 to 200 °C.
With `O=C1c2ccccc2C(=O)c2c(NC3CCCCC3)cccc21` the figure was 145 °C; with `CSC1C(=O)Nc2ccc(C3=NNC(=O)SC3C)cc21` (stereo not drawn), 159 °C.
